From patent publication US8871753B2, “Macrocyclic compounds and their use as kinase inhibitors” (Incyte Corporation, priority 2008, dated 2014)
pIC50: −log10 of the molar value. Structures can show the parent of a compound that is named as a salt.

Key:
Format in all cases: biochemical
[1] = target: T1, human JAK1 (a.a. 837-1142) (Homo sapiens, UniProt P23458); assay: In vitro JAK kinase assay (HTRF, phosphorylation of a biotinylated peptide), JAK1; conditions: Table B1; read-out: JAK1 IC50
T1 construct: human JAK1 (a.a. 837-1142); His tag (N); made in house; host or cells: insect cells (baculovirus)
In short: (§1)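 Kinase activity was measured as phosphorylation of a biotinylated peptide, with ATP at 90 μM for JAK1, 30 μM for JAK2 and 3 μM for JAK3. Reactions ran 1 hr at room temperature, were stopped with EDTA plus SA-APC and Eu-Py20, and were read by HTRF after 40 minutes of antibody binding.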

[2] = target: T2, human JAK2 (a.a. 828-1132) (Homo sapiens, UniProt O60674); assay: In vitro JAK kinase assay (HTRF, phosphorylation of a biotinylated peptide), JAK2; conditions: Table B1
T2 construct: JAK2 (a.a. 828-1132); His tag (N); made in house; host or cells: insect cells (baculovirus)
In short: as §1

[3] = target: TYK2 (Homo sapiens, UniProt P29597); assay: TYK2 kinase inhibition (Table A1); conditions: Table B1
[4] = target: T3, human JAK3 (a.a. 781-1124) (Homo sapiens, UniProt P52333); assay: In vitro JAK kinase assay (HTRF, phosphorylation of a biotinylated peptide), JAK3; conditions: Table B1
T3 construct: JAK3 (a.a. 781-1124); His tag (N); made in house; host or cells: insect cells (baculovirus)
In short: as §1

[5] = target: T4, Recombinant Human Anaplastic Lymphoma Kinase (Homo sapiens, UniProt Q9UM73); assay: ALK HTRF kinase assay; conditions: percentage inhibition of the example compound at a concentration of 500 nM or 1 mM (not specified which)
T4 construct: purchased Invitrogen, Carlsbad, Calif
In short: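 Recombinant human ALK phosphorylated a biotinylated synthetic peptide. Phosphotyrosine was detected by TR-FRET between a Eu-labelled anti-phosphotyrosine antibody and streptavidin-allophycocyanin. IC50 values came from fitting signal against inhibitor concentration to a four-parameter logistic equation with variable Hill slope.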

TYK2, sequence (P29597 whole entry): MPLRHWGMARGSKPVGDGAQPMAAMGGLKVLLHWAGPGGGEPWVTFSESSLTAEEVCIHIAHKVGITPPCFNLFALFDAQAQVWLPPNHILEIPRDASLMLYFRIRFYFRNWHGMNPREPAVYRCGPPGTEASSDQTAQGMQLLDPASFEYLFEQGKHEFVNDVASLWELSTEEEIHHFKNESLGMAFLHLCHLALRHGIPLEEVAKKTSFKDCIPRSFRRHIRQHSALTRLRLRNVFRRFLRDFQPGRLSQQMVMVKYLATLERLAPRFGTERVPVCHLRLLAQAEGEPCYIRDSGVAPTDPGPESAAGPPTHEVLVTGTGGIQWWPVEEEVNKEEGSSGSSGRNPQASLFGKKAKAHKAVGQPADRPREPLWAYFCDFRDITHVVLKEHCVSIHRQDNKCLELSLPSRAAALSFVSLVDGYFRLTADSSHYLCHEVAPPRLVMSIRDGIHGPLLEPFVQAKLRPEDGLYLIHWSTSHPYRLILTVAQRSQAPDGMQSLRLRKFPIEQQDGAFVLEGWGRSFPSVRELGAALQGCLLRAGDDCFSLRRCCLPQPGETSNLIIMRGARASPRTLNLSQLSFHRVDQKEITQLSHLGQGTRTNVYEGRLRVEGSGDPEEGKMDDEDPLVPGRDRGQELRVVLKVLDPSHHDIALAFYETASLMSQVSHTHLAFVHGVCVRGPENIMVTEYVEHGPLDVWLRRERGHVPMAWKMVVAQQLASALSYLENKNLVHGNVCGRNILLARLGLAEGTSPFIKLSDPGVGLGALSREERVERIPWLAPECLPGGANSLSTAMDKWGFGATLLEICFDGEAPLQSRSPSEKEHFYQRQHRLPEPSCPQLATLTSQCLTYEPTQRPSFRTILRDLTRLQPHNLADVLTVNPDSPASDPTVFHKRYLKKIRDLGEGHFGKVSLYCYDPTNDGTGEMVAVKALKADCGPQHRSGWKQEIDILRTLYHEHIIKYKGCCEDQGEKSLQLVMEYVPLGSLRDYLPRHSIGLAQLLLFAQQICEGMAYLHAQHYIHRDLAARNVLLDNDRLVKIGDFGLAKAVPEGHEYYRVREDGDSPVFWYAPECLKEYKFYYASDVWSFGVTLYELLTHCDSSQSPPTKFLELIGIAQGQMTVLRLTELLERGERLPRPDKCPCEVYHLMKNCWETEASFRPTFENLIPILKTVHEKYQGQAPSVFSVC
T1 sequence (P23458 849-1154): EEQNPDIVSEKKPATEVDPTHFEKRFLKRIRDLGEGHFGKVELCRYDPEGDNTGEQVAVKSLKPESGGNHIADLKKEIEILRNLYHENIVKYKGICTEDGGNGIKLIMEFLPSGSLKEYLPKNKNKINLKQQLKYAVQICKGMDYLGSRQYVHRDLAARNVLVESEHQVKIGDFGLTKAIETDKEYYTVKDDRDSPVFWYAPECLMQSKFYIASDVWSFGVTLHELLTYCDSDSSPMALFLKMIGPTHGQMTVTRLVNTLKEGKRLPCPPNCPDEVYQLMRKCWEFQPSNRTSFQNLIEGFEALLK
T2 sequence (O60674 828-1132): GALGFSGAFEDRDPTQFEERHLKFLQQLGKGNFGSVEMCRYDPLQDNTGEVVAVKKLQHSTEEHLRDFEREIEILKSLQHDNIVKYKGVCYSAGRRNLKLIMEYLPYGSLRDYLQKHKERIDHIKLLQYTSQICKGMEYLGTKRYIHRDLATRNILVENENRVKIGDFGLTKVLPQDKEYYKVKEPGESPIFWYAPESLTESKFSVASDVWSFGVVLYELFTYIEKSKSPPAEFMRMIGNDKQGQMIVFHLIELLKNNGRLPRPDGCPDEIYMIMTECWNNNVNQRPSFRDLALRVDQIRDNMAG
T3 sequence (P52333 781-1124): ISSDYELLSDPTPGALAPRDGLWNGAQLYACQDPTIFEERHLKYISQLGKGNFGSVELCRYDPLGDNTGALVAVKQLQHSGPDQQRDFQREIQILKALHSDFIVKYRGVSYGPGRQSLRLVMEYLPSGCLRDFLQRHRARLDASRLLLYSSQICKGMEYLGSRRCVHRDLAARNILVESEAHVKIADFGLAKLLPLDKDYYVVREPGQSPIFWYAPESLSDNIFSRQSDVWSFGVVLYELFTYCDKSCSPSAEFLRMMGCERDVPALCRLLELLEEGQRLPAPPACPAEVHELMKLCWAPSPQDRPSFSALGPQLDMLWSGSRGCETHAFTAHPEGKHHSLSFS
T4 sequence (Q9UM73 19-1620): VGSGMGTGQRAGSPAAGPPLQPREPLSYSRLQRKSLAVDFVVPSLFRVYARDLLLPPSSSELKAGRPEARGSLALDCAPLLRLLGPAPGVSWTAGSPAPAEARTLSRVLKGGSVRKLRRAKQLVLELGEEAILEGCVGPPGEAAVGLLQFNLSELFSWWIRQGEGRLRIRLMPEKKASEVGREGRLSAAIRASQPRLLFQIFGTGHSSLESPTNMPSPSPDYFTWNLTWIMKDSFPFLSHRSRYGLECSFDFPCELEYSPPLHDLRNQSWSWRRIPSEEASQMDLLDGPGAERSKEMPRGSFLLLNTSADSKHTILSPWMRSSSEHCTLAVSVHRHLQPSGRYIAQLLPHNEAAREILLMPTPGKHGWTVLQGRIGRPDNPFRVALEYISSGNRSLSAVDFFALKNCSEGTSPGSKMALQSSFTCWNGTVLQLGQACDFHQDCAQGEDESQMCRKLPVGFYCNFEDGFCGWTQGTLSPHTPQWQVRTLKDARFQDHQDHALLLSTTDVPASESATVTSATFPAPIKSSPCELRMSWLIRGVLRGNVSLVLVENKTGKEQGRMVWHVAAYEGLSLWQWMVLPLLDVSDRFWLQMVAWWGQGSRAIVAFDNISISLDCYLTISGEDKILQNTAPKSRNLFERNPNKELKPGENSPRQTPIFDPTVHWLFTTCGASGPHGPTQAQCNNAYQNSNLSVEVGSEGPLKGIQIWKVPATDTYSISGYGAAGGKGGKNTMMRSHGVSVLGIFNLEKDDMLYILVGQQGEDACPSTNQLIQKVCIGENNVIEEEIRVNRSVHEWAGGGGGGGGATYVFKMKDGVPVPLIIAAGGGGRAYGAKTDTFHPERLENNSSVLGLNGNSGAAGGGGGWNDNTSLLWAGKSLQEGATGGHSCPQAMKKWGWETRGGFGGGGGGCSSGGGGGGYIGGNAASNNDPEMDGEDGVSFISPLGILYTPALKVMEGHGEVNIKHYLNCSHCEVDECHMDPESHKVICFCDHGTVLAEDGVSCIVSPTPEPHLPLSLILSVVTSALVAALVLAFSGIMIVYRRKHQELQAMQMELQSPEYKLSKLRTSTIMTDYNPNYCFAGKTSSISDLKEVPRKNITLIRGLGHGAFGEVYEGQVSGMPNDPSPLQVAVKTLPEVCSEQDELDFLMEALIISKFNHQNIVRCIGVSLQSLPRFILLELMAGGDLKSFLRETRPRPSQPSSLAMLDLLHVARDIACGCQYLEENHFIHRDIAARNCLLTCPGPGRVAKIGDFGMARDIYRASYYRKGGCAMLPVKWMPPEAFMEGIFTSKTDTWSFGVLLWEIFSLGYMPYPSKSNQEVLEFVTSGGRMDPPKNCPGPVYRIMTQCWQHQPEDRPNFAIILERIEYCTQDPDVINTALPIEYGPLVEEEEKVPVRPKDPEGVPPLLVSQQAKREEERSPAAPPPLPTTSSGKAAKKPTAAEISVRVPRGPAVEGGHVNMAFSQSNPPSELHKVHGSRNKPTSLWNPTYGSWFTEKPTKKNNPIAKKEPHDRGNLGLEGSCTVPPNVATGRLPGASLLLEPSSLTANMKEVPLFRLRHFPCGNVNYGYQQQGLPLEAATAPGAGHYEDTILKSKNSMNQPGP

| SMILES | pIC50 [1] | pIC50 [2] | pIC50 [3] | pIC50 [4] | ALK % of inhibition at a concentration of 500 nM or 1 mM [5] [%] |
| --- | --- | --- | --- | --- | --- |
| CNCc1ccc2cc1CCc1cncc(c1)Nc1ncc(Cl)c(n1)N2 [Example B334, 1-[6-Chloro-2,4,8,18,22-pentaazatetracyclo[14.3.1.1(3,7).1(9,13)]docosa-1(20),3(22),4,6,9(21),10,12,16,18-nonaen-12-yl]-N-methylmethanamine trihydrochloride] | 7.36 | 6.70 | < 6.70 | < 6.70 | 72 |
| Cc1cc(C(=O)N2CCC(C(=O)N(C)Cc3ccc4cc3CCc3cncc(c3)Nc3ncc(Cl)c(n3)N4)CC2)no1 [Example B335, N-{[6-Chloro-2,4,8,18,22-pentaazatetracyclo[14.3.1.1(3,7).1(9,13)]docosa-1(20),3(22),4,6,9(21),10,12,16,18-nonaen-12-yl]methyl}-N-methyl-1-[(5-methylisoxazol-3-yl)carbonyl]piperidine-4-carboxamide bis(trifluoroacetate)] | 7.35 | 7.11 | < 6.70 | < 6.70 | 18 |
| CN(Cc1ccc2cc1CCc1cncc(c1)Nc1ncc(Cl)c(n1)N2)C(=O)C1CCN(C(=O)c2ccno2)CC1 [Example B336, N-{[6-Chloro-2,4,8,18,22-pentaazatetracyclo[14.3.1.1(3,7).1(9,13)]docosa-1(20),3(22),4,6,9(21),10,12,16,18-nonaen-12-yl]methyl}-1-(isoxazol-5-ylcarbonyl)-N-methylpiperidine-4-carboxamide bis(trifluoroacetate)] | 7.28 | 6.85 | < 6.70 | < 6.70 | 11 |
| CN(Cc1ccc2cc1CCc1cncc(c1)Nc1ncc(Cl)c(n1)N2)C(=O)C1CCN(C(=O)Nc2ccccc2)CC1 [Example B337, N(4)-{[6-chloro-2,4,8,18,22-pentaazatetracyclo[14.3.1.1(3,7).1(9,13)]docosa-1(20),3(22),4,6,9(21),10,12,16,18-nonaen-12-yl]methyl}-N(4)-methyl-N(1)-phenylpiperidine-1,4-dicarboxamide bis(trifluoroacetate)] | 7.39 | 6.77 | < 6.70 | < 6.70 | 21 |
| CN(Cc1ccc2cc1CCc1cncc(c1)Nc1ncc(Cl)c(n1)N2)C(=O)C1CCN(c2ncccn2)CC1 [Example B338, N-{[6-Chloro-2,4,8,18,22-pentaazatetracyclo[14.3.1.1(3,7).1(9,13)]docosa-1(20),3(22),4,6,9(21),10,12,16,18-nonaen-12-yl]methyl}-N-methyl-1-pyrimidin-2-ylpiperidine-4-carboxamide tris(trifluoroacetate)] | 7.15 | 6.89 | < 6.70 | < 6.70 | 21 |
| CN(Cc1ccc2cc1CCc1cncc(c1)Nc1ncc(Cl)c(n1)N2)CC1CCNCC1 [Example B339, 1-[6-Chloro-2,4,8,18,22-pentaazatetracyclo[14.3.1.1(3,7).1(9,13)]docosa-1(20),3(22),4,6,9(21),10,12,16,18-nonaen-12-yl]-N-methyl-N-(piperidin-4-ylmethyl)methanamine Tetrahydrochloride] | 6.76 | < 6.40 | < 6.40 | < 6.40 | 41 |
| Cc1cc(C(=O)N2CCC(CN(C)Cc3ccc4cc3CCc3cncc(c3)Nc3ncc(Cl)c(n3)N4)CC2)no1 [Example B344, 1-[6-Chloro-2,4,8,18,22-pentaazatetracyclo[14.3.1.1(3,7).1(9,13)]docosa-1(20),3(22),4,6,9(21),10,12,16,18-nonaen-12-yl]-N-methyl-N-({1-[(5-methylisoxazol-3-yl)carbonyl]piperidin-4-yl}methyl)methanamine tris(trifluoroacetate)] | 7.85 | 7.05 | 6.56 | < 6.40 | 43 |
| CN(Cc1ccc2cc1CCc1cncc(c1)Nc1ncc(Cl)c(n1)N2)CC1CCN(C(=O)c2ccno2)CC1 [Example B345, 1-[6-Chloro-2,4,8,18,22-pentaazatetracyclo[14.3.1.1(3,7).1(9,13)]docosa-1(20),3(22),4,6,9(21),10,12,16,18-nonaen-12-yl]-N-{[1-(isoxazol-5-ylcarbonyl)piperidin-4-yl]methyl}-N-methylmethanamine tris(trifluoroacetate)] | 7.77 | 6.75 | 7.01 | < 6.40 | 40 |

Now those with a higher pIC50 [1], led by results:

| pIC50 [1] | pIC50 [2] | pIC50 [3] | pIC50 [4] | ALK % of inhibition at a concentration of 500 nM or 1 mM [5] [%] | SMILES |
| --- | --- | --- | --- | --- | --- |
| 8.92 | 7.39 | 6.74 | < 6.40 | 24 | CN(Cc1ccc2cc1CCc1cncc(c1)Nc1ncc(Cl)c(n1)N2)CC1CCN(S(=O)(=O)c2ccccc2C#N)CC1 [Example B340, 2-[(4-{[{[6-Chloro-2,4,8,18,22-pentaazatetracyclo[14.3.1.1(3,7).1(9,13)]docosa-1(20),3(22),4,6,9(21),10,12,16,18-nonaen-12-yl]methyl}(methyl)amino]methyl}piperidin-1-yl)sulfonyl]benzonitrile tris(trifluoroacetate)] |
| 7.89 | 6.84 | < 6.40 | < 6.40 | 27 | CN(Cc1ccc2cc1CCc1cncc(c1)Nc1ncc(Cl)c(n1)N2)CC1CCN(S(=O)(=O)c2ccccc2)CC1 [Example B341, 1-[6-Chloro-2,4,8,18,22-pentaazatetracyclo[14.3.1.1(3,7).1(9,13)]docosa-1(20),3(22),4,6,9(21),10,12,16,18-nonaen-12-yl]-N-methyl-N-{[1-(phenylsulfonyl)piperidin-4-yl]methyl}methanamine tris(trifluoroacetate)] |
| 8.11 | 7.22 | 6.65 | < 6.40 | 37 | Cc1oncc1S(=O)(=O)N1CCC(CN(C)Cc2ccc3cc2CCc2cncc(c2)Nc2ncc(Cl)c(n2)N3)CC1 [Example B342, 1-[6-Chloro-2,4,8,18,22-pentaazatetracyclo[14.3.1.1(3,7).1(9,13)]docosa-1(20),3(22),4,6,9(21),10,12,16,18-nonaen-12-yl]-N-methyl-N-({1-[(5-methylisoxazol-4-yl)sulfonyl]piperidin-4-yl}methyl)methanamine tris(trifluoroacetate)] |
| 8.42 | 6.89 | 6.74 | < 6.40 | 42 | Cc1nc(S(=O)(=O)N2CCC(CN(C)Cc3ccc4cc3CCc3cncc(c3)Nc3ncc(Cl)c(n3)N4)CC2)cn1C [Example B343, 1-[6-Chloro-2,4,8,18,22-pentaazatetracyclo[14.3.1.1(3,7).1(9,13)]docosa-1(20),3(22),4,6,9(21),10,12,16,18-nonaen-12-yl]-N-({1-[(1,2-dimethyl-1H-imidazol-4-yl)sulfonyl]piperidin-4-yl}methyl)-N-methylmethanamine tris(trifluoroacetate)] |
